Paper PMC10924921, “Mi-2β promotes immune evasion in melanoma by activating EZH2 methylation” (Nature Communications, 2024)

Key:
Test in all cases: biochemical
Parameters in all cases: KINOMEscan active-site competition binding panel (468 kinase assays), per cent of control at 1000 nM
Details in all cases: KINOMEscan per cent of control (binding competition); read-out: Percent Control
[1] = biological target: T1, ABL1(T315I)-phosphorylated (Homo sapiens, UniProt P00519, T315I)
T1 construct: phosphorylated
Description: (§1) Figure S7 / Percent Control

ACVR1B = ACVR1B (Homo sapiens, UniProt P36896)
Description: as §1

AKT2 = AKT2 (Homo sapiens, UniProt P31751)
Description: as §1

BRAF = BRAF (Homo sapiens, UniProt P15056)
Description: as §1

CAMK1G = CAMK1G (Homo sapiens, UniProt Q96NX5)
Description: as §1

CASK = CASK (Homo sapiens, UniProt O14936)
Description: as §1

CSF1R-autoinhibited = CSF1R-autoinhibited (Homo sapiens, UniProt P07333)
Description: as §1

CSNK1A1L = CSNK1A1L (Homo sapiens, UniProt Q8N752)
Description: as §1

DDR1 = DDR1 (Homo sapiens, UniProt Q08345)
Description: as §1

EIF2AK1 = EIF2AK1 (Homo sapiens, UniProt Q9BQI3)
Description: as §1

HIPK3 = HIPK3 (Homo sapiens, UniProt Q9H422)
Description: as §1

JNK1 = biological target: T2, JNK1 (Homo sapiens, UniProt P45983)
T2 construct: gene MAPK8
Description: as §1

JNK3 = biological target: T3, JNK3 (Homo sapiens, UniProt P53779)
T3 construct: gene MAPK10
Description: as §1

MAP3K1 = MAP3K1 (Homo sapiens, UniProt Q13233)
Description: as §1

MAP4K4 = MAP4K4 (Homo sapiens, UniProt O95819)
Description: as §1

OSR1 = biological target: T4, OSR1 (Homo sapiens, UniProt O95747)
T4 construct: gene OXSR1
Description: as §1

PIK3CA(M1043I) = PIK3CA(M1043I) (Homo sapiens, UniProt P42336, M1043I)
Description: as §1

RET(V804L) = RET(V804L) (Homo sapiens, UniProt P07949, V804L)
Description: as §1

[2] = biological target: T5, RSK4(Kin.Dom.2-C-terminal) (Homo sapiens, UniProt Q9UK32)
T5 construct: gene RPS6KA6; Kin.Dom.2-C-terminal
Description: as §1

SGK3 = SGK3 (Homo sapiens, UniProt Q96BR1)
Description: as §1

SIK = biological target: T6, SIK (Homo sapiens, UniProt P57059)
T6 construct: gene SIK1
Description: as §1

SRPK2 = SRPK2 (Homo sapiens, UniProt P78362)
Description: as §1

YANK2 = biological target: T7, YANK2 (Homo sapiens, UniProt Q9NY57)
T7 construct: gene STK32B
Description: as §1

YANK3 = biological target: T8, YANK3 (Homo sapiens, UniProt Q86UX6)
T8 construct: gene STK32C
Description: as §1

T3 sequence (P53779 whole entry): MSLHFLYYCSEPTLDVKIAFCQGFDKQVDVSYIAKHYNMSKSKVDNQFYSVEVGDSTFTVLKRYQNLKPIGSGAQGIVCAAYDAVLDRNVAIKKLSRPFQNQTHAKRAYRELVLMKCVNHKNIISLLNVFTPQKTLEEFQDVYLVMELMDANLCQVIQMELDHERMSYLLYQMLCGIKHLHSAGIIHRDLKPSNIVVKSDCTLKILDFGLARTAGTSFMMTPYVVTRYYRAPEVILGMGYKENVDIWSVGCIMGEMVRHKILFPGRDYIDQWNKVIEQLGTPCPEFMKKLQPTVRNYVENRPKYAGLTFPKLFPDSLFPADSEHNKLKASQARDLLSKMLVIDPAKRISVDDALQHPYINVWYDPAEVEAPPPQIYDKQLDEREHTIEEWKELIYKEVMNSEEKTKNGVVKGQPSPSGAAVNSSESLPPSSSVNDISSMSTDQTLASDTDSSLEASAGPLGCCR
Sequence of MAP3K1 (Q13233 whole entry): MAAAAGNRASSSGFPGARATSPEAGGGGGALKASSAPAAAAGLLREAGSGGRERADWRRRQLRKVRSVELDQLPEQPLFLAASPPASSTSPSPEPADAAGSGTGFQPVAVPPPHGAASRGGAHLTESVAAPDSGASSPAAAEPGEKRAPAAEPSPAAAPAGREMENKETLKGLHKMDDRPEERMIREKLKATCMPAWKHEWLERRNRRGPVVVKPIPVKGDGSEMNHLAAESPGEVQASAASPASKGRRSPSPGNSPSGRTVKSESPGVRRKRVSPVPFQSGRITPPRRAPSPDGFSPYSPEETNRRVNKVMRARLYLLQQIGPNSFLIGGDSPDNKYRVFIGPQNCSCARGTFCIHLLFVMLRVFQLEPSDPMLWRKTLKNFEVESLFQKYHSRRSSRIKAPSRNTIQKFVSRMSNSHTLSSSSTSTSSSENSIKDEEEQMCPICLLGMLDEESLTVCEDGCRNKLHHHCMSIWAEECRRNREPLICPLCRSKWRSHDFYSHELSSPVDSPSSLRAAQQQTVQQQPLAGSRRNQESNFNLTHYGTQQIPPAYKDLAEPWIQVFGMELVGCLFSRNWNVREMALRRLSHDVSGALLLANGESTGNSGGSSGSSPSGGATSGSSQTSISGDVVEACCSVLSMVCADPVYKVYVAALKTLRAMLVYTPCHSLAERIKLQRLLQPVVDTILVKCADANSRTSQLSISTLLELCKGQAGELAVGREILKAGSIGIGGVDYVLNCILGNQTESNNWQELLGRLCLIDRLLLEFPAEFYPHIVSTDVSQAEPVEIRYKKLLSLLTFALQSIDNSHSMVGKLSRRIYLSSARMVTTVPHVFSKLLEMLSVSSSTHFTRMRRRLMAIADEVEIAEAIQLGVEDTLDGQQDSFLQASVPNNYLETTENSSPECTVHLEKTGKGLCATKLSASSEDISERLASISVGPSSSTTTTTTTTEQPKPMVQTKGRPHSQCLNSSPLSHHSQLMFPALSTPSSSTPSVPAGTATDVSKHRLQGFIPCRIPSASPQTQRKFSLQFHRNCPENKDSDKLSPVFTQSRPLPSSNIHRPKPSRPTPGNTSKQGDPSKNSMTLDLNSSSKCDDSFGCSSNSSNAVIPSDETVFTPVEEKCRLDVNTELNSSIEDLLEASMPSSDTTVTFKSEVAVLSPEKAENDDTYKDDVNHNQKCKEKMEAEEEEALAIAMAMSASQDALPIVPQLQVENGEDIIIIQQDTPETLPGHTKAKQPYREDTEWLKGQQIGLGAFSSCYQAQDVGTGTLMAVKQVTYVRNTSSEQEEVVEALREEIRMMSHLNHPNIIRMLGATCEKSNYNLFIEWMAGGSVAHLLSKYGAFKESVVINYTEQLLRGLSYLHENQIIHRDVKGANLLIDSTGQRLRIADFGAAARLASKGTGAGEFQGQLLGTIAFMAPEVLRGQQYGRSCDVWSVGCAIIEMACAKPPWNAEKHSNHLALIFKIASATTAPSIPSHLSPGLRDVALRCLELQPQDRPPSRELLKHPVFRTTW
Sequence of EIF2AK1 (Q9BQI3 whole entry): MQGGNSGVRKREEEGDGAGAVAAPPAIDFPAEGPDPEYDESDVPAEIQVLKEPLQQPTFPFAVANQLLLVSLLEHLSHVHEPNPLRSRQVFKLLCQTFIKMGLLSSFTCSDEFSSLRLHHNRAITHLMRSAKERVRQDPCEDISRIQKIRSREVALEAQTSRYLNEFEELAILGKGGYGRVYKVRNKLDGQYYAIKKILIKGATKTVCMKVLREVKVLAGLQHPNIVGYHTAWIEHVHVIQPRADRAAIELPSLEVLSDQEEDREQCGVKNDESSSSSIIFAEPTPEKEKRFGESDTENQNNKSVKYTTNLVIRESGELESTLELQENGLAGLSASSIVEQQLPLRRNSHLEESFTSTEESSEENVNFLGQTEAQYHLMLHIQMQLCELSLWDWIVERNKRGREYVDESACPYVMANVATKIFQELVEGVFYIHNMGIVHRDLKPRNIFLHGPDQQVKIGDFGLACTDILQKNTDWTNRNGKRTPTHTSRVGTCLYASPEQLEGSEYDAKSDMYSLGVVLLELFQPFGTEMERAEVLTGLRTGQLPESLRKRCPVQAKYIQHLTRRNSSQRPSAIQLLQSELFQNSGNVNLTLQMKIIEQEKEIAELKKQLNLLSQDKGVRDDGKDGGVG
Sequence of MAP4K4 (O95819 whole entry): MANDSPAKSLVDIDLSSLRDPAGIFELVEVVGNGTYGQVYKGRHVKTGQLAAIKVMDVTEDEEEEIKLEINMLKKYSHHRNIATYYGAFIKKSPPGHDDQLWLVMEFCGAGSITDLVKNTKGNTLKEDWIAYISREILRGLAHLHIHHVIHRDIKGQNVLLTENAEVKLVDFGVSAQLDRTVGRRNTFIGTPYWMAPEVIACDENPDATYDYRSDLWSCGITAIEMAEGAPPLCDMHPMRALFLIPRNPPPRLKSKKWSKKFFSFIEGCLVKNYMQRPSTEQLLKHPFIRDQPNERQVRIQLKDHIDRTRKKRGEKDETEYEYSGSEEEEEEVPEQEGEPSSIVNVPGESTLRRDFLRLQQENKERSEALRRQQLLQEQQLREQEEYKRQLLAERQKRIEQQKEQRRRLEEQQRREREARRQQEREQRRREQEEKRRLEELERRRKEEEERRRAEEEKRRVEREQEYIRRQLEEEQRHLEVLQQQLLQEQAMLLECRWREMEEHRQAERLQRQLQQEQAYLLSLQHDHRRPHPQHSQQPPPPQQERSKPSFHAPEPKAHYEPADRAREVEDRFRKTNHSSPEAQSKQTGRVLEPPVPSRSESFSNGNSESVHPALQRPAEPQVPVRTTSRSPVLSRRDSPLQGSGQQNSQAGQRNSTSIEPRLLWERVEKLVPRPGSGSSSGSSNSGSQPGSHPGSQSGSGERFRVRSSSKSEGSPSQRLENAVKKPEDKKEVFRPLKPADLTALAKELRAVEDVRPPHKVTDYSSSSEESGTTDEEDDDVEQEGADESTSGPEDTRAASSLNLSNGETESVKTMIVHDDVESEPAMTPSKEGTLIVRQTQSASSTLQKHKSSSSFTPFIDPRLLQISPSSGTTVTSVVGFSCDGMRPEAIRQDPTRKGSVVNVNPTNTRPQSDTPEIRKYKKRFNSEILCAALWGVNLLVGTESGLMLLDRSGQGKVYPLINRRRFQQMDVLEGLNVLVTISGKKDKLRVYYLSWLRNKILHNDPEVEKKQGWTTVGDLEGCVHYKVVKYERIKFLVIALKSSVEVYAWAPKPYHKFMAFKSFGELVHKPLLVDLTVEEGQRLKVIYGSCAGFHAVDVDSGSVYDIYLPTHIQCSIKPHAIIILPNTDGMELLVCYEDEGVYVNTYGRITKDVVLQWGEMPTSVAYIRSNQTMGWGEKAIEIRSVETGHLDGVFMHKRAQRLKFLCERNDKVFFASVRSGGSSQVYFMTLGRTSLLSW
Sequence of SRPK2 (P78362 whole entry): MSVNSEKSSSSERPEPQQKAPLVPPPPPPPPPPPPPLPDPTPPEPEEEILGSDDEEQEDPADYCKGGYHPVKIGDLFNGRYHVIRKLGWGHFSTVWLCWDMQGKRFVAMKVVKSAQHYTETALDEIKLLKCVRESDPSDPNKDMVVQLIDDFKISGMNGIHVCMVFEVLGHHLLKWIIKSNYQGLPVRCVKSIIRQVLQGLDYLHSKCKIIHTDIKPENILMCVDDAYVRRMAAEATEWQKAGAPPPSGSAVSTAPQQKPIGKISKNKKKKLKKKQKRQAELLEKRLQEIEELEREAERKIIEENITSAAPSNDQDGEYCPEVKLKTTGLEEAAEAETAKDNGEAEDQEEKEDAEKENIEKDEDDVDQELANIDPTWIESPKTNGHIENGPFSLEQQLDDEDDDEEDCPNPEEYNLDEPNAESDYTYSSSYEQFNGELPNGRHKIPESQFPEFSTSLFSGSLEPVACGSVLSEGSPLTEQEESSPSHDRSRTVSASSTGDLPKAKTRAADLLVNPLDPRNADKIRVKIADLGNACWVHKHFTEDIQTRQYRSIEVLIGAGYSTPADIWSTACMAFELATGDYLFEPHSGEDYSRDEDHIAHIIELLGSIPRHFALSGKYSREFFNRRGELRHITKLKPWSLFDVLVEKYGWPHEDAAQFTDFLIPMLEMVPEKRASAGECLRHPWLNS
T8 sequence (Q86UX6 whole entry): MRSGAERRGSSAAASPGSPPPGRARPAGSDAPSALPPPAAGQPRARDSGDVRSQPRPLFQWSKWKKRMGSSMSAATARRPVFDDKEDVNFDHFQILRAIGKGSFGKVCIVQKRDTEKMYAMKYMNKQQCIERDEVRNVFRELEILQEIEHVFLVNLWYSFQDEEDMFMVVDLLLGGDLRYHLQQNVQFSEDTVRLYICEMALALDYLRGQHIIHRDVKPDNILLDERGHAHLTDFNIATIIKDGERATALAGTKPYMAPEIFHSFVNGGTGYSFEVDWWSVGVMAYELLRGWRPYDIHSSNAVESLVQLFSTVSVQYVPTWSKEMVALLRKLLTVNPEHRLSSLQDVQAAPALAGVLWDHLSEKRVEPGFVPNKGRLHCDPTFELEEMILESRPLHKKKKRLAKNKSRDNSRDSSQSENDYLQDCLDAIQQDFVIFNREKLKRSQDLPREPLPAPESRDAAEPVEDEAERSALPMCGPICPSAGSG

Structure (SMILES): Cn1c(=O)[nH]c2ccc(-c3cccc(C(=O)NC4CCn5ccnc5C4)c3)cc21 (stereo not drawn) [Z36-MP5]
- remaining binding at 1 µM [1]: 49%
- remaining binding at 1 µM (ACVR1B): 94%
- remaining binding at 1 µM (AKT2): 89%
- remaining binding at 1 µM (BRAF): 88%
- remaining binding at 1 µM (CAMK1G): 99%
- remaining binding at 1 µM (CASK): 60%
- remaining binding at 1 µM (CSF1R-autoinhibited): 54%
- remaining binding at 1 µM (CSNK1A1L): 99%
- remaining binding at 1 µM (DDR1): 88%
- remaining binding at 1 µM (EIF2AK1): 73%
- remaining binding at 1 µM (HIPK3): 61%
- remaining binding at 1 µM (JNK1): 61%
- remaining binding at 1 µM (JNK3): 100%
- remaining binding at 1 µM (MAP3K1): 54%
- remaining binding at 1 µM (MAP4K4): 67%
- remaining binding at 1 µM (OSR1): 73%
- remaining binding at 1 µM (PIK3CA(M1043I)): 83%
- remaining binding at 1 µM (RET(V804L)): 75%
- remaining binding at 1 µM [2]: 82%
- remaining binding at 1 µM (SGK3): 60%
- remaining binding at 1 µM (SIK): 81%
- remaining binding at 1 µM (SRPK2): 63%
- remaining binding at 1 µM (YANK2): 56%
- remaining binding at 1 µM (YANK3): 94%
